What was measured:
[1] = test system: mixed cortical cells from P1 rats; test: Immunofluorescence of Aβ1-42 oligomer binding to neurons; assay type: cell-based, rat; conditions: co-treatment, 30 min to 18 h
Description: FIG. 3 provides graphs and immunocytochemical images corresponding to the experiments described in Example 6.4. Aβ1-42 oligomer binding to neurites was reduced by the anti-Aβ IgG4 monoclonal antibody. […] Green indicates staining with TuJ1, red indicates labeling with anti-Aβ (clone 6E10), and blue indicates staining with DAPI. […] Quantitative measures of fluorescence are shown for 30 min treatment and 18 h treatment (B). Mean results (±SEM) of two experiments are shown. […] Cortical cultures from P1 rats were treated as described for (A), except that Aβ1-42 tagged with HyLite Fluor-488 was used (C). Aβ1-42-labeled samples are shown in the upper panel and DAPI-stained samples are shown in the lower panel. One representative experiment is shown. Aβ1-42 fluorescence was quantified, with the mean (±SD) of the two independent experiments shown (D). […]
Aβ peptides, especially aggregation intermediates (Bateman et al., 2007), are known to associate with various lipids and proteins present in cell membranes. […] This effect was readily apparent as early as 30 min (FIGS. 3A and 3B) and remained for at least 18 h of treatment (FIG. 3B).
Cells were grown on a glass coverslips. […] Fluorescence intensity was measured in cell bodies delineated by saturated epifluorescence pictures. […]

[2] = molecular target: Aβ1-42 (Homo sapiens, UniProt P05067); test: Aβ1-42 self-assembly assay not relying on ThT fluorescence; assay type: biochemical; conditions: labeled Aβ1-42 onto immobilized un-labeled Aβ1-42
[3] = molecular target: T1, FcγRIIIa-V158 (Homo sapiens, UniProt P08637, F176V); test: FcγR binding ELISA, FcγRIIIa-V158; conditions: cross-linked IgG mAb
T1 construct: fusion proteins containing the extracellular domain of the receptor γ-chain
Description: The ability of these different monoclonal antibody backbones to internalize Aβ1-42 oligomers into microglia was then compared using confocal imaging on Aβ1-42 oligomer treated primary cortical microglia. […] To verify that microglia are indeed the cells taking up Aβ1-42 complexed to monoclonal antibodies, the study was repeated using HiLyte Fluor-488 tagged Aβ1-42 and co-stained for the microglial marker Iba1.
(§1) The binding of test antibodies to a panel of human Fcγ receptors (FcγRs) was measured using enzyme-linked immunosorbent assay (ELISA). Human FcγRs (Genentech, Inc., CA) are fusion proteins containing the extracellular domain of the receptor γ-chain with a Gly/6xHis/glutathione S transferase (GST) polypeptide tag at the C terminus. A monoclonal antibody with human IgG1 framework was used as the positive control (IgG1 control) in this experiment. Plates were coated with a mouse monoclonal anti GST antibody (Genentech, Inc.) in a 0.05 M sodium carbonate buffer (pH 9.6) overnight at 4° C. After blocking with an assay buffer containing phosphate buffered saline (PBS), 0.5% BSA, and 0.05% Tween-20, the plates were incubated with FcγRs at room temperature for 1 h. Human FcγRs were immobilized to the plate via interaction with the anti-GST coating. […] Diluted samples were applied as monomeric forms for the high affinity receptor (FcγRIa), or multimeric forms for the low affinity receptors (FcγRIIa, FcγRIIb, and FcγRIIIa). […] The antibodies bound to the FcγRs were detected with horseradish peroxidase (HRP)-conjugated F(ab′)2 fragment of goat anti human F(ab′)2 (Jackson ImmunoResearch Laboratories; West Grove, Pa.). […] The reaction was terminated with 1 M H3PO4, and absorbance at 450 nm with reference at 650 nm was measured on a plate reader (Molecular Devices, Sunnyvale, Calif.). Binding curves were generated by plotting the mean absorbance values from duplicates of sample dilutions against the respective sample absorbance.

[4] = test system: Aβ1-42; test: Aβ ELISA, binding to Aβ peptides and Aβ1-42 assembly states; design: species or system human; conditions: Aβ ELISA; human and murine Aβ1-42 and human Aβ1-40
Source text: FIG. 1 provides graphs and immunohistochemical images corresponding to the experiments described in Example 6.1 and 6.2. […] As a control, an anti-Aβ IgG monoclonal antibody with a N-terminal epitope was used. […] The mean (±SEM) of two assays is shown.
Murine anti-Aβ monoclonal antibodies were generated by immunizing mice with an Aβ peptide antigen using a liposomal vaccine formulation as previously described (Muhs et al., 2007). Several criteria were used to select candidate antibodies, including the ability to bind multiple Aβ species and to inhibit Aβ1-42 assembly into small cytotoxic peptide aggregates. A monoclonal murine mAb with an IgG2b backbone (mMABT) was selected for in vivo functionality studies using both single-transgenic murine mutant human APP and double-transgenic murine mutant human APP/PS1 models of Alzheimer's Disease. […] These ranged from monomeric and oligomeric Aβ1-42 fractions isolated by size-exclusion chromatography (SEC), mature Aβ1-42 fibers, to a more complex mixture of highly neurotoxic Aβ1-42 oligomer assemblies, ranging in size from dimers and trimers to higher molecular-weight multimers (see FIG. 8).

[5] = test system: human Fcγ receptors (FcγRIa, FcγRIIa, FcγRIIb, FcγRIIIa); test: FcγR binding ELISA, panel of human Fcγ receptors; conditions: cross-linked antibody
Description: FIG. 10 provides graphs and immunocytochemical images corresponding to the experiments described in Example 6.5. […] These findings are consistent with published data for human IgG4 antibodies (Gessner et al., 1998) and IgG1 antibodies carrying the D265A mutation (Shields et al., 2001).
as §1, with “FcγRIIIa). The multimeric forms of test antibodies were generated by cross linking F(ab′)2 fragment of goat anti human κ-chain (MP Biomedicals, Solon, Ohio), with test monoclonal antibody at an approximate molar ratio of 3:1. The plates were incubated with FcγRs at room temperature for 2 h.” for “FcγRIIIa).”

T1 sequence (P08637 17-208 F176V): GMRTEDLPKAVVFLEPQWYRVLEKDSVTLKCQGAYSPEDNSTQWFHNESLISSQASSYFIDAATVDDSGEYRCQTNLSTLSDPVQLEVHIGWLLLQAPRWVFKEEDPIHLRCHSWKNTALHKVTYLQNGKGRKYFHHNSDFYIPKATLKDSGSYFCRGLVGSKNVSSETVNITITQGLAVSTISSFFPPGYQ
Aβ1-42 (Homo sapiens, UniProt P05067), sequence (P05067 672-713 limits assumed): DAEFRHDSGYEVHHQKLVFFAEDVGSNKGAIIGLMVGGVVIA

Substance | interaction of Aβ1-42 oligomers with neurons [1] | Aβ1-42 self-assembly [2] | binding to FcγRIIIa-V158, hierarchy [3] | binding to different Aβ peptides [4] | binding to FcγRs [5]
MABT: humanized anti-Aβ monoclonal antibody of IgG4 isotype, affinity matured and humanized form of mouse mMABT | blocked the interaction of Aβ1-42 oligomers with neurons | prevented the self-assembly of Aβ1-42 in a dose-dependent manner | MABT-IgG>MABT>MABT-IgG1-D265A | bound with high affinity | substantially reduced binding to all the FcγRs
MABT-IgG1: same antigen binding sequences as MABT on human IgG1 wild-type backbone with full FcγR-binding capacity |  |  | MABT-IgG>MABT>MABT-IgG1-D265A |  | bound to all FcRγ receptors with activities similar to the positive non-Aβ-binding IgG1 control
